Results taken from patent publication US20260294769A1, “ASCORBIC ACID DERIVATIVES AND COSMETIC THEREOF” (SEIWA KASEI COMPANY, LIMITED, priority 2023, published 2026).

What was measured:
[1] = Stability Test-2: residual rate in cream of pH 7 or 9 stored at 50° C.; assay type: physicochemical
Summary of the method: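 Each test sample was formulated into a cream adjusted to pH 7 or 9: components (a) and (b) were heated and mixed separately, cooled, and then component (c) was added. The cream was held at 50° C., and the percentage of the sample compound still present (residual rate) was determined after storage.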

[2] = Stability Test-2: odor of cream stored at 50° C.; assay type: physicochemical; details: 10 panelists
Summary of the method: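 Test creams were made by heating and mixing components (a) and (b), cooling, then adding component (c) to give a pH of 7 or 9. After storage at 50° C., 10 panelists scored odor: 3 almost odorless, 2 slight strange odor, 1 strong odor. Totals were graded ◯ (25 or more), Δ (16-24) or x (15 or less).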

[3] = Stability Test-2: coloration of cream stored at 50° C.; assay type: physicochemical; details: 10 panelists
Summary of the method: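 Creams were made by heating and mixing parts (a) and (b), cooling, then adding part (c), adjusting pH to 7 or 9. After storage at 50° C., ten panelists scored coloration against the freshly prepared cream: 3 for almost no change, 2 for color change, 1 for strong coloration.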

[4] = system: Normal human dermal fibroblasts; assay: Collagen production promoting effect (ELISA of free collagen in supernatant); assay type: cell-based; details: 10 mM or less, 48 hours, control group set to 100%, N=3
Description: Normal human dermal fibroblasts were prepared in D-MEM containing 5% (v/v) fetal bovine serum to a cell density of 2.5×10^4 cells/well, and then pre-incubated for 24 hours on a 96-well plate. After removing the medium, samples prepared to a predetermined concentration in D-MEM containing 5% (v/v) fetal bovine serum were added to each well and cultured for 48 hours. After the culture was completed, the amount of free collagen in the supernatant was quantified by ELISA. Measurements were performed in triplicate (N=3).
The amount of collagen produced when the sample was measured at a concentration of 10 mM or less was compared with that of the control group, and the results (% values when the control group was set to 100%) are shown in Table 17 based on the following criteria.

[5] = system: Normal human dermal fibroblasts (NHDF); assay: Hyaluronic acid production promoting effect (ELISA of hyaluronic acid in supernatant); assay type: cell-based; details: 10 mM or less, 48 hours, control group set to 100%, N=3
Summary of the method: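 NHDF seeded at 2.5×10^4 cells/well in D-MEM with 5% FBS, pre-incubated 24 h, then exposed to samples in serum-free D-MEM for 48 h. Supernatant hyaluronic acid measured by ELISA in triplicate, expressed as % of control (100%) at ≤10 mM sample.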

[6] = system: Normal human epidermal keratinocytes; assay: Antioxidant effect: ROS production inhibition rate (DCFHDA, H2O2); assay type: cell-based; details: 10 mM or less, 24 hours incubation, 0.2 mM H2O2, N=4
Description: Normal human epidermal keratinocytes were seeded onto a 96-well plate using KG2 medium at a cell density of 2.0×10^4 cells/well. After 24 hours of pre-incubation, samples adjusted to a predetermined concentration in KG2 medium were added to each well. After 24 hours of incubation, the medium was removed, followed by washing with HBSS(−) and the incorporation of the ROS-reactive fluorescent probe DCFHDA for 30 minutes. The cells were again washed with HBSS(−), treated with 0.2 mM H2O2, and incubated for 2 hours. The fluorescence intensity was measured, and the amount of ROS produced per unit protein was calculated by dividing the fluorescence intensity by the amount of protein quantified by the BCA method, resulting in an analytical value of 1. Furthermore, the amount of ROS production calculated without adding the sample adjusted to a predetermined concentration using the above test method was set to analytical value 2; and the amount of ROS production calculated without adding the sample or 0.2 mM H2O2 was set to analytical value 3.
ROS production inhibition rate (%) was calculated using the following formula. The higher the ROS production inhibition rate, the greater the antioxidant effect can be evaluated to be.
The ROS production inhibition rate when the sample was measured at a concentration of 10 mM or less was evaluated as follows. Note that the measurement was performed in N=4.

[7] = cream pH 7, 50° C., after 2 weeks, 20160 min
[8] = cream pH 7, 50° C., after 4 weeks, 40320 min
[9] = cream pH 9, 50° C., after 2 weeks, 20160 min
[10] = cream pH 9, 50° C., after 4 weeks, 40320 min

Row | Structure (SMILES) | Residual Rate [1, 7] | Residual Rate [1, 8] | Residual Rate [1, 9] | Residual Rate [1, 10] | Odor ([2]; after 4 weeks) | Odor ([2]; after 2 weeks) | Coloration ([3]; after 2 weeks) | Coloration ([3]; after 4 weeks) | Collagen production-promoting effect [4] | Hyaluronic acid production-promoting effect [5] | Antioxidant effect (ROS production inhibition rate) [6]
1 | CCCC(=O)OCC(OC(=O)CCC)C1OC(=O)C2=C1OCCCCO2 (stereo not shown) [Synthesis Example 10, 5,6-O-dibutanoyl-2,3-O-(1,4-butanediyl) ascorbic acid] | ⊚ (95% or more) | ⊚ (95% or more) | ⊚ (95% or more) | ⊚ (95% or more) | Δ (Total score of 10 panelists is 16-24) | ◯ (Total score of 10 panelists is 25 or more) | ◯ (Total score of 10 panelists is 25 or more) | ◯ (Total score of 10 panelists is 25 or more) | ++ (140%<) | ++ (120%<) | + (<20%)
2 | CCCCCCCCCCCC(=O)OCC(O)C1OC(=O)C2=C1OCCCCO2 (stereo not shown) [Synthesis Example 13, 6-O-lauroyl-2,3-O-(1,4-butanediyl) ascorbic acid] | ⊚ (95% or more) | ⊚ (95% or more) | ⊚ (95% or more) | ⊚ (95% or more) | Δ (Total score of 10 panelists is 16-24) | ◯ (Total score of 10 panelists is 25 or more) | ◯ (Total score of 10 panelists is 25 or more) | ◯ (Total score of 10 panelists is 25 or more) | – | ++ (120%<) | + (<20%)
3 | CCCCCCCCCCCC(=O)OCC(OC(=O)CCCCCCCCCCC)C1OC(=O)C2=C1OCCCCO2 (stereo not shown) [Synthesis Example 14, 5,6-O-dilauroyl-2,3-O-(1,4-butanediyl) ascorbic acid] | ⊚ (95% or more) | ⊚ (95% or more) | ⊚ (95% or more) | ∘ (85% or more, less than 95%) | Δ (Total score of 10 panelists is 16-24) | ◯ (Total score of 10 panelists is 25 or more) | ◯ (Total score of 10 panelists is 25 or more) | ◯ (Total score of 10 panelists is 25 or more) | – | ++ (120%<) | + (<20%)

Further lines, with some results ahead:

Row | Residual Rate [1, 7] | Residual Rate [1, 8] | Residual Rate [1, 9] | Residual Rate [1, 10] | Odor ([2]; after 4 weeks) | Structure (SMILES) | Odor ([2]; after 2 weeks) | Coloration ([3]; after 2 weeks) | Coloration ([3]; after 4 weeks) | Collagen production-promoting effect [4] | Hyaluronic acid production-promoting effect [5] | Antioxidant effect (ROS production inhibition rate) [6]
4 | ⊚ (95% or more) | ⊚ (95% or more) | ⊚ (95% or more) | ⊚ (95% or more) | Δ (Total score of 10 panelists is 16-24) | CC(C)CCCCCCCCCCCCCCC(=O)OC[C@H](O)[C@H]1OC(=O)C2=C1OCCCCO2 [Synthesis Example 17, 6-O-isostearoyl-2,3-O-(1,4-butanediyl) ascorbic acid] | ◯ (Total score of 10 panelists is 25 or more) | ◯ (Total score of 10 panelists is 25 or more) | ◯ (Total score of 10 panelists is 25 or more) | ++ (140%<) | ++ (120%<) | + (<20%)
5 | ⊚ (95% or more) | ⊚ (95% or more) | ⊚ (95% or more) | ⊚ (95% or more) | Δ (Total score of 10 panelists is 16-24) | CCCCCCCC(=O)OCC(OC(=O)CCCCCCC)C1OC(=O)C2=C1OCCCO2 (stereo not shown) [Synthesis Example 23, 5,6-O-dioctanoyl-2,3-O-(1,3-propanediyl) ascorbic acid] | ◯ (Total score of 10 panelists is 25 or more) | ◯ (Total score of 10 panelists is 25 or more) | ◯ (Total score of 10 panelists is 25 or more) | ++ (140%<) | – | + (<20%)
